From PMC8792282 (Redox Biology, 2022)
Like-named read-outs stand apart in the source and are kept apart here.

Assays:
[1] = target: T1, Protein disulfide isomerase (PDI) (Homo sapiens, UniProt P07237); assay: insulin reduction assay; format: biochemical
[2] = target: T1, Protein disulfide isomerase (PDI); assay: insulin reduction assay; format: biochemical; remark: listed apart in the source

T1 sequence (P07237 18-508): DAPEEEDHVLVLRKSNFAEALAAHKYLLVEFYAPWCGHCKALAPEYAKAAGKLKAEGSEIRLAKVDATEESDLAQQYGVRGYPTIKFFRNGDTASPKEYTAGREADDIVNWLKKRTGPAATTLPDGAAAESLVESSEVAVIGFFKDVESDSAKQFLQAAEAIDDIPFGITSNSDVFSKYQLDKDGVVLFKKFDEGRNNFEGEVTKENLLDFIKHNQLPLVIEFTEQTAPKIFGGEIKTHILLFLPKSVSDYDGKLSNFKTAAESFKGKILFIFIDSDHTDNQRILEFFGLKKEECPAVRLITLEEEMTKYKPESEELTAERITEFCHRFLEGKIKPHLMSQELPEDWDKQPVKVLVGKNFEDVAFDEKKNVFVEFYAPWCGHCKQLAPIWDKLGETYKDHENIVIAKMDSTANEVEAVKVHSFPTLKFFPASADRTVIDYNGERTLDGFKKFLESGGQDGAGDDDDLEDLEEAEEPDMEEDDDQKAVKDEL

Row | IC50 [1] | IC50 [2] | Compound
1 | 4.5 µM | – | C[C@@H]1O[C@@H](OC[C@H]2O[C@@H](Oc3c(-c4ccc(O)c(O)c4)oc4cc(O)cc(O)c4c3=O)[C@H](O)[C@@H](O)[C@@H]2O)[C@H](O)[C@H](O)[C@H]1O [rutin]
2 | – | 0.7 µM | bepristat 2a
